# Reference: patent US11298334B2, “Use of isothiocyanate compounds” (JC (WUXI) COMPANY, INC., priority 2016, dated 2022)
# Columns and labels:
# SD rats = test: Hypolipidemic activity in rats: serum triglyceride after 6 months oral gavage; assay type: in vivo, rat; settings: for TG (serum triglyceride level): at terminal of administration, x ± SD, n = 14
# Experimental: Reagent: phenylethyl isothiocyanate, synthesized by Wuxi Jiexi Pharmaceutical Technology Co., Ltd. The chemical construction was determined by NMR, UV, IR, MS, etc., and its content and purity were determined by HPLC (>99%); Fulinmen Brand corn oil, manufactured by Dongliang Industry (Zhangjiagang) Co., Ltd.
# Animals: Clean SD rats, half male and half female, weighed 80-100 g, were provided by Shanghai Slac Laboratory Animal Co., Ltd. Free access to drinking water, ambient temperature of 20-25° C., relative humidity of 40%-70%.
# Experimental methods: Male rats with 123-149 g of body weight were randomly divided into 4 groups according to their body weights. Female rats with 116-142 g of body weight were randomly divided into 4 groups according to body weights. In the control group and high dose group, there were 60 in each group. In the medium-dose and low-dose groups, there were 40 in each group, half male and half female. 0, 20, 60, 120 mg/kg of phenethyl isothiocyanate was administered by oral gavage, wherein the test drug was diluted with corn oil. The rats were administered continuously for 6 months, and administered 6 days a week, and administered at the same time every morning.
# Observation items: blood biochemical examination.
# [1] = system: patients with benign prostatic hyperplasia; test: Multicenter randomized double-blind placebo-controlled trial, 24 weeks: serum triglyceride, lipoprotein cholesterol, total bilirubin; assay type: in vivo, human; settings: for serum high-density lipoprotein, average change value compared with baseline / serum high-density lipoprotein, percentage of average change compared with baseline: Centers No. 11, 13 and 14
# Experimental: A multicenter, randomized, double-blind, placebo parallel control design was used to preliminarily evaluate the safety and efficacy of phenylethyl isothiocyanate capsules on the treatment of BPH patients. Subjects meeting the entry criteria were randomly assigned to any of the following four groups at a ratio of 1:1:1:1: administration group (Group A): phenylethyl isothiocyanate 10 mg/time, 3 times a day; administration group (group D): phenylethyl isothiocyanate 20 mg/time, 3 times a day; administration group (group B): phenylethyl isothiocyanate 30 mg/time, 3 times a day; placebo group (group C): phenylethyl isothiocyanate placebo 1 capsule/time, 3 times a day. Oral administration was continued for 24 weeks. Men between the ages of 50 and 75, healthy, with moderate benign prostatic hyperplasia, no signs of prostate cancer. A total of 240 men participated in the six-month trial. Effectiveness: 1. benign prostatic hyperplasia: IPSS, QOL, prostate volume, the maximal urinary flow rate, residual urine; 2. triglycerides; 3. lipoprotein cholesterol; 4. total bilirubin. Safety: occurrence, process, and solution of all adverse events during treatment. Among the 14 centers in the clinical trial, the serum triglyceride levels and high-density lipoprotein and low-density lipoprotein levels in serum of the subjects were all detected in the center No. 11, center No. 13, and center No. 14.
# [2] = system: volunteers with benign prostatic hyperplasia accompanied by elevated bilirubin; test: Auxiliary detection on total bilirubin and blood lipid, 24 weeks; assay type: in vivo, human; settings: 10, 20 or 30 mg 3 times a day oral
# Experimental: Using the same method as described in Example 2, 24 volunteers with benign prostatic hyperplasia accompanied by elevated bilirubin were recruited. Using the same manner as described in Example 2, subjects meeting the entry criteria were randomly assigned into any of the following four groups at a ratio of 1:1:1:1: administration group (Group A): phenylethyl isothiocyanate 10 mg/time, 3 times a day; administration group (Group D): Phenylethyl isothiocyanate 20 mg/time, 3 times a day; administration group (Group B): phenylethyl isothiocyanate 30 mg/time, 3 times a day; placebo group (C group): phenylethyl isothiocyanate placebo 1 capsule/time, 3 times a day. Oral administration was continued for 24 weeks. The effectiveness and safety of the experiment were evaluated. Effectiveness: 1. benign prostatic hyperplasia: IPSS, QOL, prostate volume, maximal urinary flow rate, residual urine; 2. triglycerides; 3. lipoprotein cholesterol; 4. total bilirubin. Safety: occurrence, process, and solution of all adverse events during treatment.
# [3] = system: volunteers with only hyperlipidemia; test: Auxiliary detection on blood lipids, 6 weeks; assay type: in vivo, human; settings: 10, 20 or 30 mg 3 times a day oral
# Experimental: Using the same method as described in Example 3 except that 8 volunteers with only hyperlipidemia were recruited and using the same method as described in Example 3. The volunteers were randomly assigned into the following four groups at a ratio of 1:1:1:1: administration group (Group A): phenylethyl isothiocyanate 10 mg/time, 3 times a day; administration group (Group D): phenylethyl isothiocyanate 20 mg/time, 3 times a day; administration group (Group B): phenylethyl isothiocyanate 30 mg/time, 3 times a day; placebo group (Group C): phenylethyl isothiocyanate placebo 1 capsule/time, 3 times a day. Oral administration was continued for 6 weeks.
# [4] = system: volunteers with only hyperbilirubinemia; test: Auxiliary detection on total bilirubin, 6 weeks; assay type: in vivo, human; settings: 10, 20 or 30 mg 3 times a day oral
# Experimental: The method was the same as described in Example 3, except that 8 volunteers with only hyperbilirubinemia were recruited in the medical research peers. Using the same manner as described in Example 3, the subjects were randomly assigned into any one of the following four groups at a ratio of 1:1:1:1: administration group (Group A): phenylethyl isothiocyanate 10 mg/time, 3 times a day; administration group (Group D): phenylethyl isothiocyanate 20 mg/time, 3 times a day; administration group (Group B): phenylethyl isothiocyanate 30 mg/time, 3 times a day; placebo group (C group): phenylethyl isothiocyanate placebo 1 capsule/time, 3 times a day. Oral administration was continued for 6 weeks.
structure (smiles),measurement,setting,value
S=C=NCCc1ccccc1 [phenylethyl isothiocyanate],decrease of triglycerides in serum compared with the 0 mg/kg group,"SD rats; female rats, 20 mg/kg",25.5%
same,TG (serum triglyceride level),"SD rats; female rats, 20 mg/kg oral gavage",2.13 ± 0.82 mmol/L
same,decrease of triglycerides in serum compared with the 0 mg/kg group,"SD rats; female rats, 60 mg/kg",41.2%
same,TG (serum triglyceride level),"SD rats; female rats, 60 mg/kg oral gavage",1.68 ± 0.63 mmol/L
same,decrease of triglycerides in serum compared with the 0 mg/kg group,"SD rats; female rats, 120 mg/kg",52.8%
same,TG (serum triglyceride level),"SD rats; female rats, 120 mg/kg oral gavage",1.35 ± 0.72 mmol/L
same,decrease of triglycerides in serum compared with the 0 mg/kg group,"SD rats; male rats, 20 mg/kg",24.1%
same,TG (serum triglyceride level),"SD rats; male rats, 20 mg/kg oral gavage",1.73 ± 0.79 mmol/L
same,decrease of triglycerides in serum compared with the 0 mg/kg group,"SD rats; male rats, 60 mg/kg",44.3%
same,TG (serum triglyceride level),"SD rats; male rats, 60 mg/kg oral gavage",1.27 ± 0.38 mmol/L
same,decrease of triglycerides in serum compared with the 0 mg/kg group,"SD rats; male rats, 120 mg/kg",56.1%
same,TG (serum triglyceride level),"SD rats; male rats, 120 mg/kg oral gavage",1.00 ± 0.22 mmol/L
same,"triglyceride, percentage of average change compared with baseline","[1]; Group A, 30 mg (10 mg 3 times a day) oral, 24 weeks",−6.54%
same,"total bilirubin, percentage of average change compared with the baseline","[1]; Group A, 30 mg, 4 weeks",2.23%
same,"total bilirubin, percentage of average change compared with the baseline","[1]; Group A, 30 mg, 8 weeks",−3.15%
same,"total bilirubin, percentage of average change compared with the baseline","[1]; Group A, 30 mg, 16 weeks",−4.46%
same,"low-density lipoprotein, average change value compared with baseline","[1]; Group A, 30 mg, 24 weeks",0.0062
same,"low-density lipoprotein, percentage of average change compared with baseline","[1]; Group A, 30 mg, 24 weeks",−0.88%
same,"total bilirubin levels, average decrease compared with the baseline","[1]; Group A, 30 mg, 24 weeks",8.91%
same,"total bilirubin, percentage of average change compared with the baseline","[1]; Group A, 30 mg, 24 weeks",−8.91%
same,"triglyceride levels, average decrease compared with baseline","[1]; Group A, 30 mg, 24 weeks",6.54%
same,"serum high-density lipoprotein, average change value compared with baseline","[1]; Group A, 30 mg, 24 weeks",0.0063
same,"serum high-density lipoprotein, percentage of average change compared with baseline","[1]; Group A, 30 mg, 24 weeks",1.45%
same,"triglyceride, percentage of average change compared with baseline","[1]; Group B, 90 mg (30 mg 3 times a day) oral, 24 weeks",−8.59%
same,"total bilirubin, percentage of average change compared with the baseline","[1]; Group B, 90 mg, 4 weeks",2.18%
same,"total bilirubin, percentage of average change compared with the baseline","[1]; Group B, 90 mg, 8 weeks",−0.45%
same,"total bilirubin, percentage of average change compared with the baseline","[1]; Group B, 90 mg, 16 weeks",−8.28%
same,"low-density lipoprotein, average change value compared with baseline","[1]; Group B, 90 mg, 24 weeks",0.1925
same,"low-density lipoprotein, percentage of average change compared with baseline","[1]; Group B, 90 mg, 24 weeks",6.92%
same,"total bilirubin levels, average decrease compared with the baseline","[1]; Group B, 90 mg, 24 weeks",6.10%
same,"total bilirubin, percentage of average change compared with the baseline","[1]; Group B, 90 mg, 24 weeks",−6.10%
same,"triglyceride levels, average decrease compared with baseline","[1]; Group B, 90 mg, 24 weeks",8.59%
same,"serum high-density lipoprotein, average change value compared with baseline","[1]; Group B, 90 mg, 24 weeks",0.0938
same,"serum high-density lipoprotein, percentage of average change compared with baseline","[1]; Group B, 90 mg, 24 weeks",7.77%
same,"triglyceride, percentage of average change compared with baseline","[1]; Group D, 60 mg (20 mg 3 times a day) oral, 24 weeks",−8.58%
same,"total bilirubin, percentage of average change compared with the baseline","[1]; Group D, 60 mg, 4 weeks",5.21%
same,"total bilirubin, percentage of average change compared with the baseline","[1]; Group D, 60 mg, 8 weeks",3.34%
same,"total bilirubin, percentage of average change compared with the baseline","[1]; Group D, 60 mg, 16 weeks",−1.82%
same,"low-density lipoprotein, average change value compared with baseline","[1]; Group D, 60 mg, 24 weeks",−0.0425
same,"low-density lipoprotein, percentage of average change compared with baseline","[1]; Group D, 60 mg, 24 weeks",0.05%
same,"total bilirubin levels, average decrease compared with the baseline","[1]; Group D, 60 mg, 24 weeks",8.55%
same,"total bilirubin, percentage of average change compared with the baseline","[1]; Group D, 60 mg, 24 weeks",−8.55%
same,"triglyceride levels, average decrease compared with baseline","[1]; Group D, 60 mg, 24 weeks",8.58%
same,"serum high-density lipoprotein, average change value compared with baseline","[1]; Group D, 60 mg, 24 weeks",0.1013
same,"serum high-density lipoprotein, percentage of average change compared with baseline","[1]; Group D, 60 mg, 24 weeks",9.15%
same,"high-density lipoprotein level, increase",[2],10-20%
same,"low density lipoprotein level, decrease",[2],15-25%
same,"total bilirubin level, decrease",[2],15-25%
same,"triglyceride level, decrease",[2],15-25%
same,"high-density lipoprotein level, increase",[3],10-20%
same,"low density lipoprotein level, decrease",[3],10-25%
same,"triglyceride level, decrease",[3],10-25%
same,"total bilirubin level, decrease",[4],10-25%
